Source: patent US7153855B2, “Pyrazolopyridinyl pyrimidine therapeutic compounds” (SmithKline Beecham Corporation, priority 2001, dated 2006)
Structures can show the parent of a compound that is named as a salt.

Tested on: HSV-1
Assay: HSV-1 infection of Vero 76 cells, viral DNA detected by hybridization capture (chemiluminescence)
Assay type: cell-based
Settings: Human alphaherpesvirus 1, Vero 76
In short: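 Vero 76 cells infected 45 min at 37° C with HSV-1 (MOI=0.001), seeded at 5×10^4 cells/well in 2% FBS medium with compounds, incubated 40–48 h, then lysed in 0.2 N NaOH/1% detergent. Viral DNA captured by UL13 plasmid, hybridized overnight at 42° C with digoxigenin-labeled UL15 probe, detected by anti-digoxigenin-HRP chemiluminescence.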

Row | Compound | IC50 [nM]
1 | CCOP(=O)(NCCCCNc1cccc2c(-c3ccnc(NC4CCCC4)n3)c(-c3ccc(OC)cc3)nn12)OCC [Example 89, Diethyl 4-{[3-[2-(cyclopentylamino)pyrimidin-4-yl]-2-(4-methoxyphenyl)pyrazolo[1,5-a]pyridin-7-yl]amino}butylamidophosphate] | 800

Same assay, conditions: Human alphaherpesvirus 1; HSV-1 in Vero 76 cells, MOI=0.001, compounds incubated 40–48 hours at 37° C.; read-out: IC50

Row | Compound | IC50 [nM]
2 | COc1ccc(-c2nn3c(NCCCCNC(=O)CCCC[C@@H]4SC[C@@H]5NC(=O)N[C@@H]54)cccc3c2-c2ccnc(NC3CCCC3)n2)cc1 [Example 82, 5-[(3aS,4S,6aR)-2-Oxohexahydro-1H-thieno[3,4-d]imidazol-4-yl]-N-(4-{[3-[2-(cyclopentylamino)pyrimidin-4-yl]-2-(4-methoxyphenyl)pyrazolo[1,5-a]pyridin-7-yl]amino}butyl)pentanamide] | 400
3 | COc1ccc(-c2nn3c(N)cccc3c2-c2ccnc(NC3CCCC3)n2)cc1 [Example 83, 3-[2-(Cyclopentylamino)pyrimidin-4-yl]-2-(4-methoxyphenyl)pyrazolo-[1,5-a]pyridin-7-amine] | 700
4 | COc1ccc(-c2nn3c(NCCCCNC(=N)N)cccc3c2-c2ccnc(NC3CCCC3)n2)cc1 [Example 85, N-(4-{[3-[2-(Cyclopentylamino)pyrimidin-4-yl]-2-(4-methoxyphenyl)pyrazolo[1,5-a]pyridin-7-yl]amino}butyl)guanidine] | 4000
5 | COc1ccc(-c2nn3c(NCCCCNS(C)(=O)=O)cccc3c2-c2ccnc(NC3CCCC3)n2)cc1 [Example 86, N-(4-{[3-[2-(Cyclopentylamino)pyrimidin-4-yl]-2-(4-methoxyphenyl)pyrazolo[1,5-a]pyridin-7-yl]amino}butyl)methanesulfonamide] | 600
6 | COc1ccc(-c2nn3c(NCCCCNC(=O)NS(=O)(=O)c4ccc(C)cc4)cccc3c2-c2ccnc(NC3CCCC3)n2)cc1 [Example 87, N-{[(4-{[3-[2-(Cyclopentylamino)pyrimidin-4-yl]-2-(4-methoxyphenyl)pyrazolo[1,5-a]pyridin-7-yl]amino}butyl)amino]carbonyl}-4-methylbenzenesulfonamide] | 1000
7 | COc1ccc(-c2nn3c(NCCCCNC(=O)CCC(=O)O)cccc3c2-c2ccnc(NC3CCCC3)n2)cc1 [Example 88, 4-[(4-{[3-[2-(Cyclopentylamino)pyrimidin-4-yl]-2-(4-methoxyphenyl)pyrazolo[1,5-a]pyridin-7-yl]amino}butyl)amino]-4-oxobutanoic acid] | 9000
8 | COc1ccc(-c2nn3c(NCCCCO)cccc3c2-c2ccnc(NC3CCCC3)n2)cc1 [Example 90, 4-{[3-[2-(Cyclopentylamino)pyrimidin-4-yl]-2-(4-methoxyphenyl)-pyrazolo[1,5-a]pyridin-7-yl]amino}butan-1-ol] | 200
9 | COc1ccc(-c2nn3c(NCCCCOP(=O)(O)O)cccc3c2-c2ccnc(NC3CCCC3)n2)cc1 [Example 92, 4-{[3-[2-(Cyclopentylamino)pyrimidin-4-yl]-2-(4-methoxy-phenyl)pyrazolo[1,5-a]pyridin-7-yl]amino}butyl phosphate diammonium salt] | 300
10 | COc1ccc(-c2nn3c(NCC(=O)N4CCCC4)cccc3c2-c2ccnc(NC3CCCC3)n2)cc1 [Example 94, 3-[2-(Cyclopentylamino)-4-pyrimidinyl]-2-(4-methoxyphenyl)-N-[2-oxo-2-(1-pyrrolidinyl)ethyl]pyrazolo[1,5-a]pyridin-7-amine] | 6200
11 | COc1ccc(-c2nn3c(NCCNS(C)(=O)=O)cccc3c2-c2ccnc(NC3CCCC3)n2)cc1 [Example 95, N-(2-{[3-[2-(Cyclopentylamino)-4-pyrimidinyl]-2-(4-methoxy-phenyl)pyrazolo[1,5-a]pyridin-7-yl]amino}ethyl)methanesulfonamide] | 300
12 | COc1ccc(-c2nn3c(NCCN)cccc3c2-c2ccnc(NC3CCCC3)n2)cc1 [Example 96, N′-[3-[2-(Cyclopentylamino)-4-pyrimidinyl]-2-(4-methoxyphenyl)pyrazolo[1,5-a]pyridin-7-yl]-1,2-ethanediamine] | 1100

Now from value to compound:

Row | IC50 [nM] | Compound
13 | 700 | [N-]=[N+]=Nc1cccc(-c2nn3c(NC4CCCC4)cccc3c2-c2ccnc(NC3CCCC3)n2)c1 [Example 93, 2-(3-Azidophenyl)-N-cyclopentyl-3-[2-(cyclopentylamino)pyrimidin-4-yl]pyrazolo[1,5-a]pyridin-7-amine]
14 | 700 | Fc1cccc(-c2nn3c(N4CCOCC4)cccc3c2-c2ccnc(NC3CCCC3)n2)c1 [Example 97, N-Cyclopentyl-4-[2-(3-fluorophenyl)-7-(4-morpholinyl)pyrazolo[1,5-a]pyridin-3-yl]-2-pyrimidinamine]
15 | 300 | FC(F)(F)c1cccc(-c2nn3c(NC4CCCC4)cccc3c2-c2ccnc(NC3CCCC3)n2)c1 [Example 98, N-Cyclopentyl-3-[2-(cyclopentylamino)-4-pyrimidinyl]-2-[3-(trifluoromethyl)phenyl]pyrazolo[1,5-a]pyridin-7-amine]
16 | 500 | Clc1cccc(-c2nn3c(NC4CC4)cccc3c2-c2ccnc(NC3CC3)n2)c1 [Example 99, 2-(3-Chlorophenyl)-N-cyclopropyl-3-[2-(cyclopropylamino)-4-pyrimidinyl]pyrazolo[1,5-a]pyridin-7-amine]
17 | 300 | Clc1cccc(-c2nn3c(NC4CCCC4)cccc3c2-c2ccnc(NC3CC3)n2)c1 [Example 100, 2-(3-Chlorophenyl)-N-cyclopentyl-3-[2-(cyclopropylamino)-4-pyrimidinyl]pyrazolo[1,5-a]pyridin-7-amine]
18 | 200 | Clc1cccc(-c2nn3c(NC4CC4)cccc3c2-c2ccnc(NC3CCCC3)n2)c1 [Example 101, 2-(3-Chlorophenyl)-3-[2-(cyclopentylamino)-4-pyrimidinyl]-N-cyclopropylpyrazolo[1,5-a]pyridin-7-amine]
19 | 700 | Fc1cccc(-c2nn3c(NC4CCCC4)cccc3c2-c2ccnc(NC3CC3)n2)c1 [Example 102, N-Cyclopentyl-3-[2-(cyclopropylamino)-4-pyrimidinyl]-2-(3-fluorophenyl)pyrazolo[1,5-a]pyridin-7-amine]
20 | 500 | Clc1cccc(-c2nn3c(N4CCOCC4)cccc3c2-c2ccnc(NC3CCCC3)n2)c1 [Example 103, 4-[2-(3-Chlorophenyl)-7-(4-morpholinyl)pyrazolo[1,5-a]pyridin-3-yl]-N-cyclopentyl-2-pyrimidinamine]
21 | 200 | COCCNc1cccc2c(-c3ccnc(NC4CCCC4)n3)c(-c3cccc(Cl)c3)nn12 [Example 104, 2-(3-Chlorophenyl)-3-[2-(cyclopentylamino)-4-pyrimidinyl]-N-(2-methoxyethyl)pyrazolo[1,5-a]pyridin-7-amine]
22 | 600 | Fc1cccc(-c2nn3c(NC4CC4)cccc3c2-c2ccnc(NC3CCCC3)n2)c1 [Example 105, 3-[2-(Cyclopentylamino)-4-pyrimidinyl]-N-cyclopropyl-2-(3-fluorophenyl)pyrazolo[1,5-a]pyridin-7-amine]
23 | 200 | COCCNc1cccc2c(-c3ccnc(NC4CCCC4)n3)c(-c3cccc(F)c3)nn12 [Example 106, 3-[2-(Cyclopentylamino)-4-pyrimidinyl]-2-(3-fluorophenyl)-N-(2-methoxyethyl)pyrazolo[1,5-a]pyridin-7-amine]
